For 26 compounds, IC50 results are on record in US10357493B2, “Metalloenzyme inhibitor compounds” (Selenity Therapeutics (Bermuda), Ltd., priority 2017, dated 2019).

The target of one test is HDAC6 (Homo sapiens (Human), UniProt Q9UBN7). The test can be described thus: HDAC6 enzymatic assay. The format is biochemical. The settings on record: read-out: Human HDAC6 IC50. The gist of the method: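 Human HDAC6 activity was measured in duplicate 50 μl reactions holding 2 ng HDAC6, 10 uM of HDAC substrate and test compound in HDAC assay buffer (50 mM Tris-HCl, pH 7.4, 137 mM NaCl, 2.7 mM KCl, 0.05% Tween 20, 5 μg BSA) with 1% DMSO, for 17 hours at room temperature. HDAC Developer was added for 20 minutes before reading fluorescence at 360/460 nm.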

Another test concerns the target HDAC1 (Homo sapiens (Human), UniProt Q13547). The test can be described thus: HDAC1 enzymatic assay. The format is biochemical. The note with it: read-out: Human HDAC1 IC50. The gist of the method:
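HDAC1 activity was measured in duplicate 50 μl reactions containing 0.5 ng HDAC1, 10 uM of HDAC substrate, and test compound in buffer (50 mM Tris-HCl, pH 7.4, 137 mM NaCl, 2.7 mM KCl, 0.05% Tween 20, 5 μg BSA) with 1% DMSO, incubated 17 hours at room temperature. HDAC Developer was then added for 20 minutes and fluorescence read at 360/460 nm.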

HDAC6, sequence (Q9UBN7 whole entry): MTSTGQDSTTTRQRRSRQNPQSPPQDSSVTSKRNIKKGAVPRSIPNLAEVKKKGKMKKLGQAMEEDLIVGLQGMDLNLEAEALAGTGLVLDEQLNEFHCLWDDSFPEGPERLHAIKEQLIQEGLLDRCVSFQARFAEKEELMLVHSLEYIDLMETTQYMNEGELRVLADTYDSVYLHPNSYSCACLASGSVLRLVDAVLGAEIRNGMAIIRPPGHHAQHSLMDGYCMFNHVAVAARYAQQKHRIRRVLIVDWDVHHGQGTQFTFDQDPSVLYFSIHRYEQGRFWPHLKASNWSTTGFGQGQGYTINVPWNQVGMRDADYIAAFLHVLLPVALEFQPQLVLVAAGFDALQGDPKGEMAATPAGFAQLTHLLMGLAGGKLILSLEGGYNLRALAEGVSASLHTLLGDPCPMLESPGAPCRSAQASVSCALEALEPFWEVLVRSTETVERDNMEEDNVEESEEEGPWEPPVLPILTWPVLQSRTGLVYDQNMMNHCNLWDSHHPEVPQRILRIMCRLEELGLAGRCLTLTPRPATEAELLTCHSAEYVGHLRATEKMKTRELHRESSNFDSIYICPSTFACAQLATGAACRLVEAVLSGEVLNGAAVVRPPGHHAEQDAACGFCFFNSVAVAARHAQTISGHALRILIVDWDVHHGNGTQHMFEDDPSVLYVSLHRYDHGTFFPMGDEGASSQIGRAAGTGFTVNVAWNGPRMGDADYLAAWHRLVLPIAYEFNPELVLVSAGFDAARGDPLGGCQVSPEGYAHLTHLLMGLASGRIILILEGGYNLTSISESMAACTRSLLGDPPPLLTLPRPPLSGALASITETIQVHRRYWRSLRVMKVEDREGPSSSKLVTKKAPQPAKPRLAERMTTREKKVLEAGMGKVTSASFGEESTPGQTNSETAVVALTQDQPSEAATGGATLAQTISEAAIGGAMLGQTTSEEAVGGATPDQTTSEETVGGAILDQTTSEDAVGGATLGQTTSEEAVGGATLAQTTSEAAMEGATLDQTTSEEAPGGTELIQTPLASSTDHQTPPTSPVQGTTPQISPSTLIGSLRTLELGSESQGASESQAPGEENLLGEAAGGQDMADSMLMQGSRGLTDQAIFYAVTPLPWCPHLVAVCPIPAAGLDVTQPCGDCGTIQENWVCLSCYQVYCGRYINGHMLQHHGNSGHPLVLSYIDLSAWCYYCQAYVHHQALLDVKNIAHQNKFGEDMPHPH
HDAC1, sequence (Q13547 whole entry): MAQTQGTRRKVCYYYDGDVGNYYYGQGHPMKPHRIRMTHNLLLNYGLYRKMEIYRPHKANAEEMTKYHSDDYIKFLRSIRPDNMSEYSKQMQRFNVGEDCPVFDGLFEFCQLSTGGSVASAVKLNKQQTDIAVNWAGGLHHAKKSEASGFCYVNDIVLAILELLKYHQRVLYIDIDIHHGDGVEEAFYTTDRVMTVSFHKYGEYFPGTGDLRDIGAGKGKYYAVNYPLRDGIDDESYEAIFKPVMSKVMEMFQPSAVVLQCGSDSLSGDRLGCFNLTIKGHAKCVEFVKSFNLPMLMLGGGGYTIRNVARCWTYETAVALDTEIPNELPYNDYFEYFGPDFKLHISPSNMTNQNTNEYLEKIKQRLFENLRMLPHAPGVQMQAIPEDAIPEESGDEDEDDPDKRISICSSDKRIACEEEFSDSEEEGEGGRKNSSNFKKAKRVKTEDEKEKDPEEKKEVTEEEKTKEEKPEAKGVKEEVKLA

As to `CN(CC(Nc1ncc(-c2nnc(C(F)F)o2)cn1)c1ccc(F)cc1)S(C)(=O)=O` (stereo not shown) [Example 113, N-(2-((5-(5-(difluoromethyl)-1,3,4-oxadiazol-2-yl)pyrimidin-2-yl)amino)-2-(4-fluorophenyl)ethyl)-N-methylmethanesulfonamide], the IC50 at HDAC6 is 21 nM; at HDAC1, over 30 µM.
Consider `Fc1ccc(C(COCC(F)(F)F)Nc2ncc(-c3nnc(C(F)F)o3)cn2)c(F)c1` (single isomer, unassigned) [163(+), 5-(5-(difluoromethyl)-1,3,4-oxadiazol-2-yl)-N-(1-(2,4-difluorophenyl)-2-(2,2,2-trifluoroethoxy)ethyl)pyrimidin-2-amine], for which the IC50 is 110 nM at HDAC6 and over 30 µM at HDAC1.
For `FC(F)c1nnc(-c2cnc(NC3(c4cccnc4)CC3)nc2)o1` [Example 65, 5-(5-(difluoromethyl)-1,3,4-oxadiazol-2-yl)-N-(1-(pyridin-3-yl)cyclopropyl)pyrimidin-2-amine] the same measures were 390 nM and over 30 µM.
For `Fc1ccc(C2(Nc3ncc(-c4nnc(C(F)F)o4)cn3)CCC2)cc1` [Example 88], the IC50 at HDAC6 is 29 nM; on HDAC1 it was over 30 µM.
For `Fc1ccc(C(Nc2ncc(-c3nnc(C(F)F)o3)cn2)C(F)(F)F)cc1` (stereo not shown) [Example 15, 5-(5-(difluoromethyl)-1,3,4-oxadiazol-2-yl)-N-(2,2,2-trifluoro-1-(4-fluorophenyl)ethyl)pyrimidin-2-amine] the same measures were 74 nM and over 30 µM.
For `CC(=O)N(CC(Nc1ncc(-c2nnc(C(F)F)o2)cn1)c1ccc(F)cc1)CC(F)(F)F` (single isomer, unassigned) [167(+), N-(2-((5-(5-(difluoromethyl)-1,3,4-oxadiazol-2-yl)pyrimidin-2-yl)amino)-2-(4-fluorophenyl)ethyl)-N-(2,2,2-trifluoroethyl)acetamide] the same measures were 110 nM and over 30 µM.
On to `Fc1ccc(C(CC(F)(F)F)Nc2ncc(-c3nnc(C(F)F)o3)cn2)cc1` (single isomer, unassigned; (+)) [13(+), (+)-5-(5-(difluoromethyl)-1,3,4-oxadiazol-2-yl)-N-(3,3,3-trifluoro-1-(4-fluorophenyl)propyl)pyrimidin-2-amine], for which the values for the IC50 on HDAC6 and at HDAC1 were 30 nM and over 30 µM, respectively.
For `FC(F)c1nnc(-c2cnc(NC3(c4cccc(C(F)(F)F)c4Cl)CC3)nc2)o1` [Example 85, N-(1-(2-chloro-3-(trifluoromethyl)phenyl)cyclopropyl)-5-(5-(difluoromethyl)-1,3,4-oxadiazol-2-yl)pyrimidin-2-amine] the same measures were 62 nM and over 30 µM.
For `Fc1cc(OC(F)F)ccc1C1(Nc2ncc(-c3nnc(C(F)F)o3)cn2)CC1` [Example 33, N-(1-(4-(difluoromethoxy)-2-fluorophenyl)cyclopropyl)-5-(5-(difluoromethyl)-1,3,4-oxadiazol-2-yl)pyrimidin-2-amine] the same measures were 29 nM and over 30 µM.
Taken in the same sequence, the figures for `FC(F)c1nnc(-c2cnc(NC3(c4cccc(OCC(F)(F)F)c4Cl)CC3)nc2)o1` [Example 87, N-(1-(2-chloro-3-(2,2,2-trifluoroethoxy)phenyl)cyclopropyl)-5-(5-(difluoromethyl)-1,3,4-oxadiazol-2-yl)pyrimidin-2-amine] were 120 nM and over 30 µM.
`CC(=O)NCC(Nc1ncc(-c2nnc(C(F)F)o2)cn1)c1ccc(F)cc1` (single isomer, unassigned) [78(−), N-(2-((5-(5-(difluoromethyl)-1,3,4-oxadiazol-2-yl)pyrimidin-2-yl)amino)-2-(4-fluorophenyl)ethyl)acetamide]: the values for the IC50 on HDAC6 and on HDAC1 were 420 nM and over 30 µM, respectively.
Taken in the same sequence, the figures for `O=C1CCCN1CC(Nc1ncc(-c2nnc(C(F)F)o2)cn1)c1ccc(F)cc1` (single isomer, unassigned) [177(+), 1-(2-((5-(5-(difluoromethyl)-1,3,4-oxadiazol-2-yl)pyrimidin-2-yl)amino)-2-(4-fluorophenyl)ethyl)pyrrolidin-2-one] were 110 nM and over 30 µM.
Taken in the same sequence, the figures for `Fc1ccc(-c2ccc(C3(Nc4ncc(-c5nnc(C(F)F)o5)cn4)CC3)cc2)cc1` [Example 16, 5-(5-(difluoromethyl)-1,3,4-oxadiazol-2-yl)-N-(1-(4′-fluoro-[1,1′-biphenyl]-4-yl)cyclopropyl) pyrimidin-2-amine] were 95 nM and over 30 µM.
For `NCC(Nc1ncc(-c2nnc(C(F)F)o2)cn1)c1ccc(F)cc1` (stereo not shown) [Example 96, N1-(5-(5-(difluoromethyl)-1,3,4-oxadiazol-2-yl)pyrimidin-2-yl)-1-(4-fluorophenyl)ethane-1,2-diamine] the same measures were 58 nM and over 30 µM.
As for `CS(=O)(=O)NCC(Nc1ncc(-c2nnc(C(F)F)o2)cn1)c1ccc(F)c(F)c1` (single isomer, unassigned) [171(−), N-(2-((5-(5-(difluoromethyl)-1,3,4-oxadiazol-2-yl)pyrimidin-2-yl)amino)-2-(3,4-difluorophenyl)ethyl)methanesulfonamide], the IC50 is 590 nM at HDAC6 and over 30 µM on HDAC1.
For `FC(F)c1nnc(-c2cnc(NC3(c4cccc(C(F)(F)F)c4)CC3)nc2)o1` [Example 49, 5-(5-(difluoromethyl)-1,3,4-oxadiazol-2-yl)-N-(1-(3-(trifluoromethyl)phenyl)cyclopropyl) pyrimidin-2-amine] the same measures were 16 nM and over 30 µM.
For `CS(=O)(=O)CC(Nc1ncc(-c2nnc(C(F)F)o2)cn1)c1ccc(F)cc1` (single isomer, unassigned) [161(−), 5-(5-(difluoromethyl)-1,3,4-oxadiazol-2-yl)-N-(1-(4-fluorophenyl)-2-(methylsulfonyl)ethyl)pyrimidin-2-amine] the same measures were 870 nM and over 30 µM.
For `O=C(NCC(Nc1ncc(-c2nnc(C(F)F)o2)cn1)c1ccc(F)cc1)C1CC1` (single isomer, unassigned) [168(−), N-(2-((5-(5-(difluoromethyl)-1,3,4-oxadiazol-2-yl)pyrimidin-2-yl)amino)-2-(4-fluorophenyl)ethyl)cyclopropanecarboxamide] the same measures were 750 nM and over 30 µM.
On to `O=S(=O)(NCC(Nc1ncc(-c2nnc(C(F)F)o2)cn1)c1ccc(OC(F)(F)F)cc1)C1CC1` (stereo not drawn) [158(+), N-(2-((5-(5-(difluoromethyl)-1,3,4-oxadiazol-2-yl)pyrimidin-2-yl)amino)-2-(4-(trifluoromethoxy)phenyl)ethyl)cyclopropanesulfonamide], for which the results for the IC50 at HDAC6 and at HDAC1 were 51 nM and over 30 µM, respectively.
On to `CC(C)CS(=O)(=O)NCC(Nc1ncc(-c2nnc(C(F)F)o2)cn1)c1ccc(F)cc1` (stereo not shown) [Example 112, N-(2-((5-(5-(difluoromethyl)-1,3,4-oxadiazol-2-yl)pyrimidin-2-yl)amino)-2-(4-fluorophenyl)ethyl)-2-methylpropane-1-sulfonamide], for which the IC50 at HDAC6 is 32 nM; on HDAC1, over 30 µM.
For `CS(=O)(=O)N(CC(Nc1ncc(-c2nnc(C(F)F)o2)cn1)c1ccc(Cl)cc1)CC(F)(F)F` (single isomer, unassigned) [174(+), N-(2-(4-chlorophenyl)-2-((5-(5-(difluoromethyl)-1,3,4-oxadiazol-2-yl)pyrimidin-2-yl)amino)ethyl)-N-(2,2,2-trifluoroethyl)methanesulfonamide] the same measures were 170 nM and over 30 µM.
Taken in the same sequence, the figures for `FC(F)Oc1cccc(C2(Nc3ncc(-c4nnc(C(F)F)o4)cn3)CC2)c1Cl` [Example 86, N-(1-(2-chloro-3-(difluoromethoxy)phenyl)cyclopropyl)-5-(5-(difluoromethyl)-1,3,4-oxadiazol-2-yl)pyrimidin-2-amine] were 28 nM and over 30 µM.
Taken in the same sequence, the figures for `Fc1cccc(F)c1C(CC(F)(F)F)Nc1ncc(-c2nnc(C(F)F)o2)cn1` (stereo not shown) [Example 102, 5-(5-(difluoromethyl)-1,3,4-oxadiazol-2-yl)-N-(1-(2,6-difluorophenyl)-3,3,3-trifluoropropyl)pyrimidin-2-amine] were 92 nM and over 30 µM.
On to `CN(c1ncc(-c2nnc(C(F)F)o2)cn1)C1(c2ccc(F)cc2)CC1` [Example 8, 5-(5-(difluoromethyl)-1,3,4-oxadiazol-2-yl)-N-(1-(4-fluorophenyl)cyclopropyl)-N-methylpyrimidin-2-amine], for which the IC50 is 9000 nM on HDAC6 and over 30 µM at HDAC1.
Taken in the same sequence, the figures for `FC(F)c1nnc(-c2cnc(NC3(c4ccc(OC(F)(F)F)cc4)CC3)nc2)o1` [Example 54, 5-(5-(difluoromethyl)-1,3,4-oxadiazol-2-yl)-N-(1-(4-(trifluoromethoxy)phenyl)cyclopropyl) pyrimidin-2-amine] were 22 nM and over 30 µM.
For `Fc1ccc(C(COCC(F)(F)F)Nc2ncc(-c3nnc(C(F)F)o3)cn2)cc1` (single isomer, unassigned) [162(+), 5-(5-(difluoromethyl)-1,3,4-oxadiazol-2-yl)-N-(1-(4-fluorophenyl)-2-(2,2,2-trifluoroethoxy)ethyl)pyrimidin-2-amine] the same measures were 130 nM and over 30 µM.
